Assay results reported in US8852554B2, “Radiolabelled PDE10 ligands” (Janssen Pharmaceutica NV, priority 2009, dated 2014).
Where “and” joins values, the source holds several entries; their conditions need not be identical. Equal entries are not always repeated.

Assay: Biodistribution studies of the 18F tracers in rats
Type: in vivo, male Wistar rats
Conditions: rat
Procedure: Biodistribution studies were carried out in healthy male Wister rats (body weight 200-500 g) at 2 min, 30 min and 60 min post injection (p.i.) (n=3/time point). For |^18F|B-4 only the 2 min and 30 min time points were studied. […] Blood and major organs were collected in tared tubes and weighed. The radioactivity in blood, organs and other body parts was measured using an automated gamma counter. The distribution of radioactivity in different parts of the body at different time points p.i. of the tracer was calculated and expressed as percentage of injected dose (% ID), and as percentage of injected dose per gram tissue (% ID/g) for the selected organs. % ID is calculated as cpm in organ/total cpm recovered. For calculation of total radioactivity in blood, blood mass was assumed to be 7% of the body mass.

## Cc1cccc(COc2ccc(-c3nn(CC[18F])cc3-c3ccncc3)cc2)n1 [[^18F]B-1]
Biodistribution studies
  retention in the PDE10A-rich region striatum: no significant retention
i.v.
  2 min/30 min ratios of % ID/g (normalized for body weight), all brain regions: ≥ 2.49
  Clearance, 2 min/30 min ratio of % ID/g (normalized for body weight), Blood: 1.65
  Clearance, 2 min/30 min ratio of % ID/g (normalized for body weight), Cerebellum: 4.01
  Clearance, 2 min/30 min ratio of % ID/g (normalized for body weight), Cerebrum total: 2.88
  Clearance, 2 min/30 min ratio of % ID/g (normalized for body weight), Cortex: 3.47
  Clearance, 2 min/30 min ratio of % ID/g (normalized for body weight), Hippocampus: 3.06
  Clearance, 2 min/30 min ratio of % ID/g (normalized for body weight), Rest of cerebrum: 2.86
  Clearance, 2 min/30 min ratio of % ID/g (normalized for body weight), Striatum: 2.49
  Clearance, 2 min/60 min ratio of % ID/g (normalized for body weight), Blood: 1.83
  Clearance, 2 min/60 min ratio of % ID/g (normalized for body weight), Cerebellum: 6.60
  Clearance, 2 min/60 min ratio of % ID/g (normalized for body weight), Cerebrum total: 3.60
  Clearance, 2 min/60 min ratio of % ID/g (normalized for body weight), Cortex: 5.55
  Clearance, 2 min/60 min ratio of % ID/g (normalized for body weight), Hippocampus: 3.63
  Clearance, 2 min/60 min ratio of % ID/g (normalized for body weight), Rest of cerebrum: 3.29
  Clearance, 2 min/60 min ratio of % ID/g (normalized for body weight), Striatum: 3.41
i.v., 2 min p.i.
  % ID, Carcass: 33.12 ± 2.3 % ID
  % ID, Cerebellum: 0.09 % ID and 0.091 ± 0.018 % ID
  % ID, Cerebrum total: 0.49 % ID and 0.490 ± 0.067 % ID
  % ID, Cortex: 0.069 ± 0.008 % ID
  % ID, Heart: 0.60 ± 0.1 % ID
  % ID, Hippocampus: 0.018 ± 0.004 % ID
  % ID, Intestines: 10.79 ± 1.5 % ID
  % ID, Kidneys: 4.24 ± 0.5 % ID
  % ID, Liver: 41.94 ± 2.2 % ID
  % ID, Lungs: 0.92 ± 0.2 % ID
  % ID, Rest of cerebrum: 0.367 ± 0.054 % ID
  % ID, Spleen + Pancreas: 1.92 ± 0.2 % ID
  % ID, Stomach: 3 % ID and 3.09 ± 0.1 % ID
  % ID, Striatum: 0.036 ± 0.012 % ID
  % ID, Urine: 0.09 ± 0.1 % ID
  % ID/g normalized for body weight, Blood: 0.06 ± 0.01 % ID/g × body wt. in kg
  % ID/g normalized for body weight, Cerebellum: 0.164 ± 0.01 % ID/g × body wt. in kg
  % ID/g normalized for body weight, Cerebrum + Cerebellum: 0.13 ± 0.01 % ID/g × body wt. in kg
  % ID/g normalized for body weight, Cerebrum total: 0.120 ± 0.01 % ID/g × body wt. in kg
  % ID/g normalized for body weight, Cortex: 0.199 ± 0.04 % ID/g × body wt. in kg
  % ID/g normalized for body weight, Heart: 0.21 ± 0.02 % ID/g × body wt. in kg
  % ID/g normalized for body weight, Hippocampus: 0.083 ± 0.01 % ID/g × body wt. in kg
  % ID/g normalized for body weight, Kidneys: 0.47 ± 0.05 % ID/g × body wt. in kg
  % ID/g normalized for body weight, Liver: 0.92 ± 0.05 % ID/g × body wt. in kg
  % ID/g normalized for body weight, Lungs: 0.19 ± 0.08 % ID/g × body wt. in kg
  % ID/g normalized for body weight, Rest of cerebrum: 0.111 ± 0.00 % ID/g × body wt. in kg
  % ID/g normalized for body weight, Spleen + Pancreas: 0.40 ± 0.03 % ID/g × body wt. in kg
  % ID/g normalized for body weight, Striatum: 0.175 ± 0.02 % ID/g × body wt. in kg
  % ID/g, Blood: 0.21 ± 0.02 % ID/g
  % ID/g, Cerebellum: 0.607 ± 0.019 % ID/g
  % ID/g, Cerebrum + Cerebellum: 0.47 ± 0.03 % ID/g
  % ID/g, Cerebrum total: 0.444 ± 0.026 % ID/g
  % ID/g, Cortex: 0.734 ± 0.148 % ID/g
  % ID/g, Heart: 0.76 ± 0.09 % ID/g
  % ID/g, Hippocampus: 0.307 ± 0.041 % ID/g
  % ID/g, Liver: 3.40 ± 0.31 % ID/g
  % ID/g, Lungs: 0.69 ± 0.34 % ID/g
  % ID/g, Rest of cerebrum: 0.411 ± 0.023 % ID/g
  % ID/g, Spleen + Pancreas: 1.47 ± 0.15 % ID/g
  % ID/g, Striatum: 0.648 ± 0.075 % ID/g
  striatum/blood ratio (from % ID/g normalized for body weight): 3.10
  striatum/cerebellum ratio (from % ID/g normalized for body weight): 1.07
  striatum/cortex ratio (from % ID/g normalized for body weight): 0.88
  striatum/hippocampus ratio (from % ID/g normalized for body weight): 2.11
  total initial brain uptake: 0.59 % ID
i.v., 30 min p.i.
  % ID, Blood: 2.40 ± 0.4 % ID
  % ID, Carcass: 25.50 ± 2.1 % ID
  % ID, Cerebellum: 0.028 ± 0.000 % ID
  % ID, Cerebrum total: 0.172 ± 0.012 % ID
  % ID, Cortex: 0.026 ± 0.004 % ID
  % ID, Heart: 0.21 ± 0.0 % ID
  % ID, Hippocampus: 0.006 ± 0.000 % ID
  % ID, Intestines: 14.67 ± 3.3 % ID
  % ID, Kidneys: 1.44 ± 0.2 % ID
  % ID, Liver: 45.29 ± 5.2 % ID
  % ID, Lungs: 0.42 ± 0.1 % ID
  % ID, Rest of cerebrum: 0.127 ± 0.010 % ID
  % ID, Spleen + Pancreas: 0.57 ± 0.2 % ID
  % ID, Stomach: 10 % ID and 9.73 ± 1.7 % ID
  % ID, Striatum: 0.013 ± 0.001 % ID
  % ID, Urine: 0.29 ± 0.0 % ID
  % ID/g normalized for body weight, Blood: 0.03 ± 0.01 % ID/g × body wt. in kg
